Test results reported in US11858900B2, “Fluorinated 2-amino-4-(substituted amino)phenyl carbamate derivatives” (OcuTerra Therapeutics, Inc., priority 2016, dated 2024).
pEC50: −log10 of the molar value. Where two headings read alike, the source gives them in different places.

Key:
human Kv7.2/7.3 channels = biological target: T1, human Kv7.2/7.3 channels (Homo sapiens, UniProt O43525+O43526); assay: Assessment of recombinantly expressed human Kv7.2/7.3 channel activation on SyncroPatch automated patch clamp platform; type: cell-based; conditions: for activation of Kv7.2/7.3 channels as measured by the SyncroPatch platform: FIGS. 2A-2G plots
T1 construct: expressed in transfected cells
T1 sequence (O43525 whole entry): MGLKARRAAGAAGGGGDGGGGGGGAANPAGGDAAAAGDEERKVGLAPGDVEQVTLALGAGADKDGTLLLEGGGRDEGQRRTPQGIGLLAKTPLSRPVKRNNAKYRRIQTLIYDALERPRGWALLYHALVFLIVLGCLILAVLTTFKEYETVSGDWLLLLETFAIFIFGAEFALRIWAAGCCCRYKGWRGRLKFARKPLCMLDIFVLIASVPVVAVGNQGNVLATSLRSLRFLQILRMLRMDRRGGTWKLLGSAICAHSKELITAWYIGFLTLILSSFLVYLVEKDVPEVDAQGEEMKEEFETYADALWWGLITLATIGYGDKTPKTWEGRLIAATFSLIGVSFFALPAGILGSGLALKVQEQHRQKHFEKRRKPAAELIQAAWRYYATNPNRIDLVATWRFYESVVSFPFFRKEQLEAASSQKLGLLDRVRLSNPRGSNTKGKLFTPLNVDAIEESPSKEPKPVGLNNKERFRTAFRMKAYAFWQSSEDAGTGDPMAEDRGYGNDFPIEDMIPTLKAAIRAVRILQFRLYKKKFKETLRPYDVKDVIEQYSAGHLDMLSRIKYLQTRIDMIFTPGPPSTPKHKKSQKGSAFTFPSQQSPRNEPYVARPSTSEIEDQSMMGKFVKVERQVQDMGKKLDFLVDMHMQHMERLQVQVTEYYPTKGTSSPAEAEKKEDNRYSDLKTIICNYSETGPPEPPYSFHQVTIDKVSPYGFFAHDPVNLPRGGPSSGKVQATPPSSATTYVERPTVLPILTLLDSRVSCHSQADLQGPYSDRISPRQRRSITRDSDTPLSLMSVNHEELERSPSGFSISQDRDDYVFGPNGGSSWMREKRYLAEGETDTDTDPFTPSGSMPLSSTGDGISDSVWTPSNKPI
T1 sequence (O43526 whole entry): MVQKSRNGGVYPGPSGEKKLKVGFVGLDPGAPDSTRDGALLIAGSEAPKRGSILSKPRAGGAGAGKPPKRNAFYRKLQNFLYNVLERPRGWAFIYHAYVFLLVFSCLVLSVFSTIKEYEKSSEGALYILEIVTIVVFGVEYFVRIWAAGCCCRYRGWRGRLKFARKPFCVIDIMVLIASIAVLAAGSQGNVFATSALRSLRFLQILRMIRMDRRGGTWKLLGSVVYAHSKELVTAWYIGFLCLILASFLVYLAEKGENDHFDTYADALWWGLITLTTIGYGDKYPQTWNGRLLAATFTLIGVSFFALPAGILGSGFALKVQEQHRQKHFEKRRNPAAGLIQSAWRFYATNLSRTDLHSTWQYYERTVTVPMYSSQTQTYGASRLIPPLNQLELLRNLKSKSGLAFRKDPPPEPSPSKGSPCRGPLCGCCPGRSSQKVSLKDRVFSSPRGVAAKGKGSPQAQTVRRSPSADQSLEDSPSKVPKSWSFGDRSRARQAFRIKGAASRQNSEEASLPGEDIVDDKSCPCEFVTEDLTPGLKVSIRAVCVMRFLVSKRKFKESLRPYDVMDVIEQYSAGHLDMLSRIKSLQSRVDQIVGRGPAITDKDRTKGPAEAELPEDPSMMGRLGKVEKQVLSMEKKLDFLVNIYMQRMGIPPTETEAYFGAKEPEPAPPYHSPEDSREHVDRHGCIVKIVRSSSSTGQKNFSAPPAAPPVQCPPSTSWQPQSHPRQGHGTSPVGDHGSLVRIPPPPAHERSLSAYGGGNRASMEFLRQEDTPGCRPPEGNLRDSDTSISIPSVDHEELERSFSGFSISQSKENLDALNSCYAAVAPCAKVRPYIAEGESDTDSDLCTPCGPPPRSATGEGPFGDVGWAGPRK
Procedure: The in vitro effects of a compound of the present application recombinantly expressed human Kv7.2/7.3 channels are assessed on Syncropatch high throughput electrophysiology platform.
Cell Preparations: CHO cells stably expressing human Kv7.2/7.3 channels were cultured in Ham's F-12 media (Hyclone, Cat #SH30022.02) supplemented with 10% Fetal Bovine Serum, 1×MEM non-essential amino acids, and 400m/ml G418 at 37° C. in 5% CO2. On the day of Syncropatch, the cells were washed once in DPBS (Hyclone, Cat #SH30028.03) for approximately 30 seconds. […] 10 ml of cold media (Ham's F-12 media (Hyclone, Cat #SH30022.02) supplemented with 10% Fetal Bovine Serum, 1×MEM non-essential amino acids, and 400m/ml G418) was added to inactivate Trypsin. The cells were then triturated until a single cell suspension was achieved, and the cell count was performed. The cells were then diluted to a concentration of 5×10^5/ml and placed into the “cell hotel” on the deck of the Syncropatch at 10° C. for about 1 hour to recover. 40 μL of the cell suspension was dispensed into each well of a 384-well Syncropatch chip by the onboard pipettor at the beginning of each Syncropatch assay.
Eight-point dose response curves were created by performing semi-log serial dilutions from 10 mM compound stock solutions in 100% DMSO. […] Final DMSO concentration in the assay was 0.3%. Final assay test concentrations were 30 μM to 0.01 μM or 1 μM to 0.0003 μM. Negative (0.3% DMSO) and positive (30 μM ML213) controls were included in each test run to assess pharmacological responsiveness.
Assessment Protocol: Electrophysiological studies of the compounds were performed using the Nanion SyncroPatch automated patch clamp platform.
Kv7 channels were evaluated using a voltage protocol in which cells were voltage-clamped at a holding potential of −110 mV. Potassium currents were activated with a series of voltage steps from −110 mV to +50 mV in 10 mV intervals with 5.5 seconds between successive voltage steps. Each voltage step was 3 seconds in duration and immediately followed by a 1 second voltage step to −120 mV to generate an inward “tail” current to allow construction of activation (G-V) curves by plotting normalized peak tail current versus the potential of the activating voltage step.
Data Analysis: Data was collected on the Syncropatch platform using PatchControl software (Nanion) and processed and analyzed using DataControl Software (Nanion). Normalized percent activation was calculated and activation curves were fit with a Boltzmann function to determine the midpoint voltage of activation (G-V midpoint) for both pre-compound and post-compound conditions for each of the 384-wells of a sealchip with Pipeline Pilot (Accelrys). The difference in G-V midpoint between pre-compound and post-compound conditions (A V0.5) was plotted as a function of concentration and concentration-response curves were fit with a three-parameter logistic equation {Y=Bottom+(Top−Bottom)/(1+10^(Log EC50−X))} for determination of the EC50 (Graphpad Prism).

[1] = in vivo; cited from earlier work
[2] = concentration-dependent shift in G-V midpoint of activation, CHO cells stably expressing human Kv7.2/7.3, SyncroPatch, read-out: EC50 (95% CI)

Compound	pEC50 (human Kv7.2/7.3 channels; [2])	activation of Kv7.2/7.3 channels as measured by the SyncroPatch platform (human Kv7.2/7.3 channels)	further results
C=CCN(Cc1ccc(F)cc1)c1ccc(NC(=O)OCC)c(N)c1F [Compound 1, ethyl (4-(allyl(4-fluorobenzyl)amino)-2-amino-3-fluorophenyl)carbamate]	5.30 to 6.00	–	–
C=CCN(Cc1ccc(C(F)(F)F)cc1)c1ccc(NC(=O)OCC)c(N)c1F [Compound 2, ethyl (4-(allyl(4-(trifluoromethyl)benzyl)amino)-2-amino-3-fluorophenyl)carbamate]	6.00 to 7.00	–	–
C=CCN(Cc1cccc(C(F)(F)F)c1)c1ccc(NC(=O)OCC)c(N)c1F [Compound 3, ethyl (4-(allyl(3-(trifluoromethyl)benzyl)amino)-2-amino-3-fluorophenyl)carbamate]	4.60 to 5.30	–	–
C=CCN(Cc1ccc(F)cc1)c1ccc(NC(=O)OCC)c(N)c1 [Compound 4, ethyl (4-(allyl(4-fluorobenzyl)amino)-2-aminophenyl)carbamate]	6.00 to 7.00	dose-dependent activation	–
C=CCN(Cc1cccc(C(F)(F)F)c1)c1ccc(NC(=O)OCC)c(N)c1 [Compound 6, ethyl (4-(allyl(3-(trifluoromethyl)benzyl)amino)-2-aminophenyl)carbamate]	6.00 to 7.00	dose-dependent activation	–
C#CCN(Cc1ccc(F)cc1)c1ccc(NC(=O)OCC)c(N)c1F [Compound 7, ethyl (2-amino-3-fluoro-4-((4-fluorobenzyl)(prop-2-yn-1-yl)amino)phenyl)carbamate]	6.00 to 7.00	dose-dependent activation	–
C#CCN(Cc1ccc(C(F)(F)F)cc1)c1ccc(NC(=O)OCC)c(N)c1F [Compound 8, ethyl (2-amino-3-fluoro-4-(prop-2-yn-1-yl(4-(trifluoromethyl)benzyl)amino)phenyl)carbamate]	6.00 to 7.00	dose-dependent activation	–
C#CCN(Cc1cccc(C(F)(F)F)c1)c1ccc(NC(=O)OCC)c(N)c1F [Compound 9, ethyl (2-amino-3-fluoro-4-(prop-2-yn-1-yl(3-(trifluoromethyl)benzyl)amino)phenyl)carbamate]	6.00 to 7.00	–	–
C#CCN(Cc1ccc(F)cc1)c1ccc(NC(=O)OCC)c(N)c1 [Compound 10, reference compound]	5.30 to 6.00	dose-dependent activation	–
C#CCN(Cc1ccc(C(F)(F)F)cc1)c1ccc(NC(=O)OCC)c(N)c1 [Compound 11, ethyl (2-amino-4-(prop-2-yn-1-yl(4-(trifluoromethyl)benzyl)amino)phenyl)carbamate]	6.00 to 7.00	–	–
C#CCN(Cc1cccc(C(F)(F)F)c1)c1ccc(NC(=O)OCC)c(N)c1 [Compound 12, ethyl (2-amino-4-(prop-2-yn-1-yl(3-(trifluoromethyl)benzyl)amino)phenyl)carbamate]	6.00 to 7.00	dose-dependent activation	–
CCOC(=O)Nc1ccc(N2CCc3cc(F)ccc3C2)c(F)c1N [Compound 17, ethyl (2-amino-3-fluoro-4-(6-fluoro-3,4-dihydroisoquinolin-2(1H)-yl)phenyl)carbamate]	6.00 to 7.00	–	–
CCOC(=O)Nc1ccc(N2CCc3ccc(C(F)(F)F)cc3C2)c(F)c1N [Compound 18, Ethyl (2-amino-3-fluoro-4-(7-(trifluoromethyl)-3,4-dihydroisoquinolin-2(1H)-yl)phenyl)carbamate]	6.00 to 7.00	–	–
CCOC(=O)Nc1ccc(N2CCc3cc(C(F)(F)F)ccc3C2)c(F)c1N [Compound 19, ethyl (2-amino-3-fluoro-4-(6-(trifluoromethyl)-3,4-dihydroisoquinolin-2(1H)-yl)phenyl)carbamate]	5.30 to 6.00	–	–
CCOC(=O)Nc1ccc(N2CCc3ccc(F)cc3C2)c(F)c1N [Compound 20, ethyl (2-amino-3-fluoro-4-(7-fluoro-3,4-dihydroisoquinolin-2(1H)-yl)phenyl)carbamate]	6.00 to 7.00	–	–
CCOC(=O)Nc1ccc(N2CCc3cc(F)ccc3C2)cc1N [Compound 21, ethyl (2-amino-4-(6-fluoro-3,4-dihydroisoquinolin-2(1H)-yl)phenyl)carbamate]	5.30 to 6.00	–	–
CCOC(=O)Nc1ccc(N2CCc3ccc(C(F)(F)F)cc3C2)cc1N [Compound 22, ethyl (2-amino-4-(7-(trifluoromethyl)-3,4-dihydroisoquinolin-2(1H)-yl)phenyl)carbamate]	6.00 to 7.00	–	–
CCOC(=O)Nc1ccc(N2CCc3cc(C(F)(F)F)ccc3C2)cc1N [Compound 23, ethyl (2-amino-4-(6-(trifluoromethyl)-3,4-dihydroisoquinolin-2(1H)-yl)phenyl)carbamate]	5.30 to 6.00	–	–
CCOC(=O)Nc1ccc(N2CCc3ccc(F)cc3C2)cc1N [Compound 24, ethyl (2-amino-4-(7-fluoro-3,4-dihydroisoquinolin-2(1H)-yl)phenyl)carbamate]	5.30 to 6.00	–	–
CCOC(=O)Nc1c(N)cc(NCc2ccc(F)cc2)cc1F [Compound X, reference compound]	–	dose-dependent activation	pEC50 (human Kv7.2/7.3 channels): 6.00 to 7.00
CCOC(=O)Nc1ccc(NCc2ccc(F)cc2)cc1N [Ezogabine, ethyl N-[2-amino-4-[(4-fluorophenyl)methylamino]phenyl]carbamate]	–	–	half-life [1]: 8 h
